Where a name gives a salt, the structure may show the parent alone.
Legend:
Type in all cases: in vivo
[1] = tested on: wild pansy (Viola tricolor L; VIOTR); assay: Postemergence herbicidal activity, greenhouse, visual injury: wild pansy; design: key: visual injury, 0–100%: 0 = no injury, 100 = complete kill
Experimental: (§1) Evaluation of Postemergence Herbicidal Safening in Cereal Crops
(§2) Seeds of the desired test plant species were planted in Sun Gro MetroMix® 306 planting mixture, which typically has a pH of 6.0 to 6.8 and an organic matter content of about 30 percent, in plastic pots with a surface area of 103.2 square centimeters (cm^2). When required to ensure good germination and healthy plants, a fungicide treatment and/or other chemical or physical treatment was applied. The plants were grown for 7-36 days (d) in a greenhouse with an approximate 14-hour (h) photoperiod which was maintained at about 18° C. during the day and 17° C. during the night. Nutrients and water were added on a regular basis and supplemental lighting was provided with overhead metal halide 1000-Watt lamps as necessary. The plants were employed for testing when they reached the second or third true leaf stage.
(§3) Weighed amounts of esters (methyl) or salts (TEA [triethylammonium], K [potassium]) of 4-amino-3-chloro-6-(4-chloro-2-fluoro-3-methoxyphenyl)pyridine-2-carboxylic acid (Compound 1) were dissolved in a volume of 97:3 volume/volume (v/v) acetone/dimethylsulfoxide (DMSO) to obtain stock solutions. […] The concentrated stock solutions were diluted with an aqueous mixture of 1.5% v/v of Agri-dex crop oil concentrate to provide the appropriate application rates. Compound requirements are based upon a 12 mL application volume at a rate of 187 liters per hectare (L/ha). Stocks solutions of the safeners were prepared following the same procedure. Spray solutions of the safeners and experimental compound mixtures were prepared by adding the stock solutions to the appropriate amount of dilution solution to form a 12 mL spray solution with active ingredients in two-way combinations. Formulated compounds were applied to the plant material with an overhead Mandel track sprayer equipped with 8002E nozzles calibrated to deliver 187 L/ha over an application area of 0.503 square meters (m^2) at a spray height of 18 inches (43 centimeters (cm)) above average plant canopy. Control plants were sprayed in the same manner with the solvent blank.
(§4) The treated plants and control plants were placed in a greenhouse as described above and watered by sub-irrigation to prevent wash-off of the test compounds. After 20-22 d, the condition of the test plants as compared with that of the control plants was determined visually and scored on a scale of 0 to 100 percent where 0 corresponds to no injury and 100 corresponds to complete kill.
(§5) Colby's equation was used to determine the herbicidal effects expected from the mixtures (Colby, S. R. Calculation of the synergistic and antagonistic response of herbicide combinations. Weeds 1967, 15, 20-22.).
(§6) The following equation was used to calculate the expected activity of mixtures containing two active ingredients, A and B: Expected=A+B−(A×B/100)
(§7) A=observed efficacy of active ingredient A at the same concentration as used in the mixture.
(§8) B=observed efficacy of active ingredient B at the same concentration as used in the mixture.

[2] = tested on: scented mayweed (Matricaria chamomila L; MATCH); assay: Postemergence herbicidal activity, greenhouse, visual injury: scented mayweed; design: key: % visual injury: 0 = no injury, 100 = complete kill
Experimental: as §1, §2, §3, §4, §5, §6, §7, §8

[3] = tested on: barley (Hordeum vulgare L; HORVS); assay: Postemergence herbicidal safening, greenhouse, visual injury: barley
Experimental: as §1, §2, §3, §4, §5, §6, §7, §8

[4] = tested on: wheat (Triticum aestivum L; TRZAS); assay: Postemergence herbicidal safening, greenhouse, visual injury: wheat
Experimental: as §1, §2, §3, §4, §5, §6, §7, §8

[5] = tested on: purple deadnettle (Lamium purpureum L; LAMPU); assay: Postemergence herbicidal activity, greenhouse, visual injury: purple deadnettle; design: key: visual injury, 0–100%: 0 = no injury, 100 = complete kill
Experimental: as §1, §2, §3, §4, §5, §6, §7, §8

[6] = tested on: chickweed (Stellaria media L; STEME); assay: Postemergence herbicidal activity, greenhouse, visual injury: chickweed; design: key: visual injury, 0–100%: 0 = no injury, 100 = complete kill
Experimental: as §1, §2, §3, §4, §5, §6, §7, §8

[7] = tested on: cleavers (Galium aparine L; GALAP); assay: Postemergence herbicidal activity, greenhouse, visual injury: cleavers; design: key: visual injury, 0–100%: 0 = no injury, 100 = complete kill
Experimental: as §1, §2, §3, §4, §5, §6, §7, §8

[8] = tested on: corn poppy (Papaver rhoeas L; PAPRH); assay: Postemergence herbicidal activity, greenhouse, visual injury: corn poppy
Experimental: as §1, §2, §3, §4, §5, §6, §7, §8

[9] = tested on: Russian thistle (Salsola iberica L; SASKR); assay: Postemergence herbicidal activity, greenhouse, visual injury: Russian thistle; design: key: visual injury, 0–100%: 0 = no injury, 100 = complete kill
Experimental: as §1, §2, §3, §4, §5, §6, §7, §8

[10] = tested on: kochia (Kochia scoparia L; KCHSC); assay: Postemergence herbicidal activity, greenhouse, visual injury: kochia; design: key: % visual injury: 0 = no injury, 100 = complete kill
Experimental: as §1, §2, §3, §4, §5, §6, §7, §8

[11] = tested on: wild buckwheat (Polygonum convolvulus L; POLCO); assay: Postemergence herbicidal activity, greenhouse, visual injury: wild buckwheat
Experimental: as §1, §2, §3, §4, §5, §6, §7, §8

[12] = tested on: bird's-eye speedwell (Veronica persica L; VERPE); assay: Postemergence herbicidal activity, greenhouse, visual injury: bird's-eye speedwell; design: key: visual injury, 0–100%: 0 = no injury, 100 = complete kill
Experimental: as §1, §2, §3, §4, §5, §6, §7, §8

[13] = Compound 1 K salt 8.75 g/ha alone
[14] = Compound 1 K salt 17.5 g/ha alone
[15] = Compound 1 K salt 35 g/ha alone

COc1c(Cl)ccc(-c2cc(N)c(Cl)c(C(=O)[O-])n2)c1F.[K+] [1 K salt]
VIOTR Ob (Observed values) [1, 13]: 20 | VIOTR Ob (Observed values) [1, 14]: 48 | VIOTR Ob (Observed values) [1, 15]: 42 | MATCH Ob (Observed values) [2, 13]: 50 | MATCH Ob (Observed values) [2, 14]: 62 | MATCH Ob (Observed values) [2, 15]: 57 | HORVS Ob (Observed values) [3, 13]: 1.7 | HORVS Ob (Observed values) [3, 14]: 3.3 | HORVS Ob (Observed values) [3, 15]: 6.7 | TRZAS Ob (Observed values) [4, 13]: 5 | TRZAS Ob (Observed values) [4, 14]: 8 | TRZAS Ob (Observed values) [4, 15]: 27

COc1c(Cl)ccc(-c2cc(N)c(Cl)c(C(=O)O)n2)c1F [Compound 1 TEA salt, 4-amino-3-chloro-6-(4-chloro-2-fluoro-3-methoxyphenyl)pyridine-2-carboxylic acid]
LAMPU Ob ([5]; applied alone at 140 g/ha): 99% | LAMPU Ob ([5]; applied alone, 140 g/ha): 99 | STEME Ob ([6]; applied alone at 140 g/ha): 94% | STEME Ob ([6]; applied alone, 140 g/ha): 94 | VIOTR Ob ([1]; applied alone at 140 g/ha): 69% | VIOTR Ob ([1]; applied alone, 140 g/ha): 69 | GALAP Ob ([7]; applied alone at 140 g/ha): 100% | GALAP Ob ([7]; applied alone, 140 g/ha): 100 | PAPRH Ob ([8]; applied alone at 140 g/ha): 100% | PAPRH Ob ([8]; applied alone, 140 g/ha): 100 | MATCH Ob ([2]; applied alone at 140 g/ha): 80% | MATCH Ob ([2]; applied alone, 140 g/ha): 80 | HORVS Ob ([3]; applied alone at 140 g/ha): 16% | HORVS Ob ([3]; applied alone, 140 g/ha): 16% | SASKR Ob ([9]; applied alone at 140 g/ha): 88% | SASKR Ob ([9]; applied alone, 140 g/ha): 88 | KCHSC Ob ([10]; applied alone at 140 g/ha): 94% | KCHSC Ob ([10]; applied alone, 140 g/ha): 94 | TRZAS Ob ([4]; applied alone at 140 g/ha): 26% | TRZAS Ob ([4]; applied alone, 140 g/ha): 26% | POLCO Ob ([11]; applied alone at 140 g/ha): 100% | POLCO Ob ([11]; applied alone, 140 g/ha): 100 | VERPE Ob ([12]; applied alone at 140 g/ha): 85% | VERPE Ob ([12]; applied alone, 140 g/ha): 85

Clc1cc(Cl)nc(-c2ccccc2)n1 [Fenclorim]
LAMPU Ob ([5]; applied alone, 17.5 g/ha): 0 | LAMPU Ob ([5]; applied alone, 35 g/ha): 0 | LAMPU Ob ([5]; applied alone, 70 g/ha): 0 | LAMPU Ob ([5]; applied alone, 140 g/ha): 0 | STEME Ob ([6]; applied alone, 17.5 g/ha): 0 | STEME Ob ([6]; applied alone, 35 g/ha): 0 | STEME Ob ([6]; applied alone, 70 g/ha): 0 | STEME Ob ([6]; applied alone, 140 g/ha): 0 | VIOTR Ob ([1]; applied alone, 17.5 g/ha): 0 | VIOTR Ob ([1]; applied alone, 35 g/ha): 0 | VIOTR Ob ([1]; applied alone, 70 g/ha): 0 | VIOTR Ob ([1]; applied alone, 140 g/ha): 0 | GALAP Ob ([7]; applied alone, 17.5 g/ha): 0 | GALAP Ob ([7]; applied alone, 35 g/ha): 0 | GALAP Ob ([7]; applied alone, 70 g/ha): 0 | GALAP Ob ([7]; applied alone, 140 g/ha): 0 | PAPRH Ob ([8]; applied alone, 17.5 g/ha): 0 | PAPRH Ob ([8]; applied alone, 35 g/ha): 0 | PAPRH Ob ([8]; applied alone, 70 g/ha): 0 | PAPRH Ob ([8]; applied alone, 140 g/ha): 0 | MATCH Ob ([2]; applied alone, 17.5 g/ha): 0 | MATCH Ob ([2]; applied alone, 35 g/ha): 0 | MATCH Ob ([2]; applied alone, 70 g/ha): 0 | MATCH Ob ([2]; applied alone, 140 g/ha): 0 | SASKR Ob ([9]; applied alone, 17.5 g/ha): 0 | SASKR Ob ([9]; applied alone, 35 g/ha): 0 | SASKR Ob ([9]; applied alone, 70 g/ha): 0 | SASKR Ob ([9]; applied alone, 140 g/ha): 0 | KCHSC Ob ([10]; applied alone, 17.5 g/ha): 0 | KCHSC Ob ([10]; applied alone, 35 g/ha): 0 | KCHSC Ob ([10]; applied alone, 70 g/ha): 0 | KCHSC Ob ([10]; applied alone, 140 g/ha): 0 | POLCO Ob ([11]; applied alone, 17.5 g/ha): 0 | POLCO Ob ([11]; applied alone, 35 g/ha): 0 | POLCO Ob ([11]; applied alone, 70 g/ha): 0 | POLCO Ob ([11]; applied alone, 140 g/ha): 0 | VERPE Ob ([12]; applied alone, 17.5 g/ha): 0 | VERPE Ob ([12]; applied alone, 35 g/ha): 0 | VERPE Ob ([12]; applied alone, 70 g/ha): 0 | VERPE Ob ([12]; applied alone, 140 g/ha): 0

Reference: patent US8921267B2, “Safening 6-(trisubstituted phenyl)-4-amino-2-pyridinecarboxylate herbicide injury on cereal crops” (Dow AgroSciences LLC, priority 2008, dated 2014)
